Laboratory results as given in patent publication US7074824B2, “Pharmaceutical compositions containing beta-lapachone, or derivatives or analogs thereof, and methods of using same” (Arqule, Inc., priority 2001, dated 2006).
Like-named read-outs stand apart in the source and are kept apart here.

Key:
A2780CP = experiment: MTS growth inhibition assay; format: cell-based, human; details: Homo sapiens, A2780C/P
Description: (§1) A2780 and A2780/CP (ovarian); MCF-7 (breast); HT-29 (colon); BxPC-3 (pancreas); and A549 (lung). The human tumor cell lines (purchased from ATCC, Rockville, Md.) were cultured at 37° C. […] Nova Tech, Grand Island, N.Y.) containing 10% fetal bovine serum (FBS, Nova Tech). Aliquots of cells were seeded into each well of 96-well microtiter plates at a final concentration of 10^4 cells/well and incubated for 24 h prior to exposure to test compounds. […] The MTS assay is a colorimetric assay based upon the ability of viable cells to convert MTS, a novel tetrazolium compound and electron-coupling reagent, to a colored formazan product that is soluble in cell culture medium. The cell concentration is then determined by measuring the absorbance of the formazan product at 490 nm. Growth inhibition, expressed as IC50, is calculated relative to vehicle-treated control cells.

A2780 = experiment: MTS growth inhibition assay; format: cell-based, human; details: Homo sapiens
Description: as §1

A549 = experiment: MTS growth inhibition assay; format: cell-based, human; details: Homo sapiens
Description: as §1

BxPC-3 = experiment: MTS growth inhibition assay; format: cell-based, human; details: Homo sapiens
Description: as §1

HT-29 = experiment: MTS growth inhibition assay; format: cell-based, human; details: Homo sapiens
Description: as §1

MCF-7 = experiment: MTS growth inhibition assay; format: cell-based, human; details: Homo sapiens
Description: as §1

[1] = tested on: RPMI 8226 multiple myeloma cells; format: in vivo
Description: Chemicals. β-lapachone was synthesized and dissolved in 40% hydroxypropyl β-cyclodextrin at a concentration of 10 mg/mL and kept at room temperature in a dark container. Hydroxypropyl β-cyclodextrin was dissolved in distilled water at a concentration of 10 mg/mL and kept at room temperature. […]®, a basement membrane matrix was purchased from Becton Dickinson Labware (BD Biosciences, Two Oak Park Drive, Bedford, Mass.) and was dissolved in Dulbecco's modified Eagle's medium with 50 μg/mL Gentamycin and kept frozen at −20° C. […]® is extracted from the Engelbreth-Holm-Swarm mouse tumor, a tumor rich in extracellular matrix proteins. The major matrix components are laminin, collagen IV, entactin, and heparan sulfate proteoglycan (perlecan); the matrix also contains growth factors, matrix metalloproteinases (MMPs [collagenases]), and plasminogen activators, without any inhibitors of metalloproteinases (TIMPs). The […] matrix is a solution at 4° C. and gels at room temperature to form a three-dimensional reconstituted basement membrane. This model system closely mimics the structure, composition, physical properties, and functional characteristics of the basement membrane in vivo and provides a physiologically relevant environment for studies of cell morphology, biochemical function, migration or invasion, and gene expression. The frozen […]® matrix was thawed overnight at 4° C. before use.
Cell Cultures. RPMI8226 cells (a human multiple myeloma cell line) were provided Dr. William Dalton (Lee Moffit Cancer Center, Tampa, Fla.). They were maintained by frequent passages in RPMI 1640 (Cellgro®, Mediatech Inc., Herndon, Va.) containing 10% Fetal Bovine serum (FBS) (GibcoBRL, Life Technologies, Grand Island, N.Y.) supplemented with 2×10^−3M L-Glutamine, 100 units/mL penicillin (Pen), and 100 μg/mL streptomycin (Cellgro®D, Mediatech Inc., Herndon, Va.) in 162 cm^2 cell culture flasks (Costar®, Corning Incorporated, Corning, N.Y.). The exponentially growing cell lines were CD138+, CD38+/CD45RA−, EBV negative, and pathogen free.
Mice. Forty male 6 week old Bg-Nu-Xid mice (deficient in T, B, and NK cells) were obtained from the FCRDC, Frederick, Bethesda, Md. and housed at the Redstone animal facility at DFCI. These mice have 3 separate mutations—Beige (Bg) autosomal recessive mutation associated with impaired chemotaxis and motility of macrophages & deficiency of NK cells; the nude (nu) autosomal recessive mutation associated with depletion of T cells due to thymic agenesis; and the X-linked immune defect (xid) which produces functional defects of B lymphocytes. The animals were raised in a barrier facility in cages with saw dust bedding and laminar air at 19–22° C. Rodent food and sterile drinking water were supplied ad libitum. The mice were quarantined to rule out development of any disease. One mouse died during transport, and 5 others were lost because of dehydration (n=2), probable infection (n=2) and excessive bleeding due to trauma (n=1). After 1 week, enrofloxacin (a quinolone antibiotic) was added in drinking water of all mice. All procedures involving animals were approved by and performed according to guidelines of the Institutional Animal Care and Use Committee of the Dana Farber Cancer Institute (DFCI).
Histologic Analysis. The mice were sacrificed when the tumor reached 20 mm in their largest diameter or they became moribund, as per the policy of the Animal Protocol Committee at Dana Farber Cancer Institute. […]

Work on `CC1(C)CCC2=C(O1)c1ccccc1C(=O)C2=O` [β-lapachone] yielded an IC50 (A2780CP; read-out: Growth inhibitory activity (50% effective concentration, IC50), A2780CP (resistant) ovarian, Exp 1) of 4.47 µM, an IC50 (A2780CP; read-out: Growth inhibitory activity (50% effective concentration, IC50), A2780CP (resistant) ovarian, Exp 2) of 1.61 µM and an IC50 (A2780CP; read-out: Growth inhibitory activity (50% effective concentration, IC50), A2780CP (resistant) ovarian, Exp 3) of 1.76 µM. It also gave an IC50 (A2780CP; read-out: Growth inhibitory activity (50% effective concentration, IC50), A2780CP (resistant) ovarian, Mean ± SE of 3 experiments) of 2.61 ± 0.93 µM, an IC50 (A2780; A2780, read-out: Growth inhibitory activity (50% effective concentration, IC50), A2780 (sensitive) ovarian, Exp 1, 4 h treatment + 24 h drug-free) of 2.11 µM and an IC50 (A2780; A2780, read-out: Growth inhibitory activity (50% effective concentration, IC50), A2780 (sensitive) ovarian, Exp 2, 4 h treatment + 24 h drug-free) of 3.99 µM. It also gave an IC50 (A2780; A2780, read-out: Growth inhibitory activity (50% effective concentration, IC50), A2780 (sensitive) ovarian, Exp 3, 4 h treatment + 24 h drug-free) of 0.876 µM, an IC50 (A2780; A2780, read-out: Growth inhibitory activity (50% effective concentration, IC50), A2780 (sensitive) ovarian, Mean ± SE of 3 experiments) of 2.32 ± 0.91 µM and an IC50 (A549; A549, read-out: Growth inhibitory activity (50% effective concentration, IC50), A549 lung, Exp 1) of 4.48 µM. The IC50 (A549; A549, read-out: Growth inhibitory activity (50% effective concentration, IC50), A549 lung, Exp 2) was 4.73 µM, the IC50 (A549; A549, read-out: Growth inhibitory activity (50% effective concentration, IC50), A549 lung, Exp 3) was 18.7 µM and the IC50 (A549; A549, read-out: Growth inhibitory activity (50% effective concentration, IC50), A549 lung, Mean ± SE of 3 experiments) was 9.3 ± 4.69 µM. For the same compound, the IC50 (BxPC-3; BXPC-3, read-out: Growth inhibitory activity (50% effective concentration, IC50), BxPC-3 pancreas, Exp 1) was 11.6 µM, the IC50 (BxPC-3; BXPC-3, read-out: Growth inhibitory activity (50% effective concentration, IC50), BxPC-3 pancreas, Exp 2) was 5.68 µM and the IC50 (BxPC-3; BXPC-3, read-out: Growth inhibitory activity (50% effective concentration, IC50), BxPC-3 pancreas, Exp 3) was 16.5 µM. It also gave an IC50 (BxPC-3; BXPC-3, read-out: Growth inhibitory activity (50% effective concentration, IC50), BxPC-3 pancreas, Mean ± SE of 3 experiments) of 11.3 ± 3.12 µM, an IC50 (HT-29; HT-29, read-out: Growth inhibitory activity (50% effective concentration, IC50), HT-29 colon, Exp 1) of 5.37 µM and an IC50 (HT-29; HT-29, read-out: Growth inhibitory activity (50% effective concentration, IC50), HT-29 colon, Exp 2) of 11.4 µM. It also gave an IC50 (HT-29; HT-29, read-out: Growth inhibitory activity (50% effective concentration, IC50), HT-29 colon, Exp 3) of 9.89 µM, an IC50 (HT-29; HT-29, read-out: Growth inhibitory activity (50% effective concentration, IC50), HT-29 colon, Mean ± SE of 3 experiments) of 8.89 ± 1.82 µM and an IC50 (MCF-7; MCF7, read-out: Growth inhibitory activity (50% effective concentration, IC50), MCF-7 breast, Exp 1) of 2.37 µM. It also gave an IC50 (MCF-7; MCF7, read-out: Growth inhibitory activity (50% effective concentration, IC50), MCF-7 breast, Exp 2) of 4.75 µM, an IC50 (MCF-7; MCF7, read-out: Growth inhibitory activity (50% effective concentration, IC50), MCF-7 breast, Exp 3) of 2.1 µM and an IC50 (MCF-7; MCF7, read-out: Growth inhibitory activity (50% effective concentration, IC50), MCF-7 breast, Mean ± SE of 3 experiments) of 3.07 ± 0.84 µM. For the same compound, the “tumor volume versus control group” value ([1]; 50 mg/kg i.p. every alternate day in 40% HPBCD, by day 11, p=0.007) was “statistically significant decrease in tumor volume”, the “survival compared to controls” value ([1]; day 5, 7, 9, 11, 13, 15 and 17, FIG. 16) was “survival was greater” and the “MM cell apoptosis in tumors (mean±SD)” value ([1]; histopathology, light microscopy, p=0.001 versus control) was 41.1%±12.7. For the same compound, the kidney histology ([1]; mouse, in vivo) was “mild tubular vacuolization” and the “microscopic toxicity on liver, heart, lung, brain, and spleen” value ([1]; mouse, in vivo) was “no microscopic evidence of any toxicity”.
